Laboratory results as given in patent US7871978B2, “Bone tropic peptides” (University of Virginia Patent Foundation, priority 2004, dated 2011).
“Also recorded” adds a separate entry of the source.

What was measured:
[1] = system: Membrane and cytosol fractions from human bone marrow endothelial cells; test: Affinity chromatography of HBME fractions on immobilized peptide; format: binding; set-up: key to Identification of binding partners by affinity chromatography: HBME: ✓: Check marks indicate positive binding observed with FITC; −: a dash indicates a negative result; conditions: for Identification of binding partners by affinity chromatography: HBME: cell lysates
Procedure: (§1) Membrane and cytosol fractions from human bone marrow endothelial cells and bovine aortic endothelial cells were prepared and used to identify the components from within these fractions that bind to the peptides using affinity chromatography). […] Cell surface nucleolin is present at higher concentrations in actively dividing cells and is down regulated in cells when they become quiescent. Nucleolin is the apparent cell surface receptor of E-coli intimin-gamma. Cell bound intimin has been proposed to trigger a host cell response similar to the extension of filipodia when cells bind to laminin. […] Table 3 provides a summary of peptide-binding partners (putative receptors) identified by affinity chromatography of cell lysates.
Peptide Affinity Column Chromatography: Peptides identified from the phage display experiments in mouse bone and bone marrow were synthesized with an additional three-residue glycine linker and an N-terminal lysine residue. The lysine residue was used to specifically link the peptides to a support. Cell membranes from BMECs were solubilized with triton X-100. The solubilized proteins were passed through the peptide affinity column (total volume, 500 μL) followed by extensive washes with buffer. Retained proteins were eluted either with 100 mM solution of the same peptide as that immobilized on the column or with a wash of 0.1 N HCl-Glycine, pH 2.2. The eluates were analyzed by SDS PAGE and proteins observed in the gels were identified by LC/MS/MS.

[2] = system: Membrane and cytosol fractions from bovine aortic endothelial cells; test: Affinity chromatography of BAEC fractions on immobilized peptide; format: binding; set-up: key to Identification of binding partners by affinity chromatography: BAEC: ✓: Check marks indicate positive binding observed with FITC; −: a dash indicates a negative result; conditions: cell lysates
Procedure: as §1

[3] = system: Bone marrow cells isolated from mouse femur; test: Peptide binding to bone marrow cells in culture (Avidin-FITC); set-up: key to Localization of peptide binding: Marrow (cells in culture): ✓: Check marks indicate positive binding observed with FITC; −: a dash indicates a negative result; conditions: for Localization of peptide binding: Marrow (cells in culture): FITC; for Binding to adherent cells from bone marrow blowouts: fibronectin-coated chamber slides, Avidin-FITC staining
Procedure: (§2) For localization of peptide binding to cells and tissue sections, biotinylated peptides were synthesized. Fluorescein-isothiocyanate (FITC) labeled Avidin was used to localize the peptides on cells in culture and in tissue sections in vitro by epiluminescence microscopy. In addition, the biotinylated peptides were detected at concentrations as low as 1 μM in slot blots.
(§3) Bone marrow cells isolated from mouse femur were lifted with ethylenediaminetetraacetic acid (EDTA) and trypsin, resuspended, and allowed to attach on fibronectin-coated chamber slides for Avidin-FITC staining. […] The D1 cell is a multipotential mesenchymal stem-like line that was isolated from bone marrow and shown to have the characteristics of osteoprogenitor cells. This cell line has been well established and used successfully in several in vitro and in vivo studies in our laboratory. Peptide binding to human bone marrow endothelial cells (HBME) and bovine aortic endothelial cells (BAEC) in culture was also tested using the same procedure.

[4] = system: prostate cancer cells (CaP); test: Prostate cancer (CaP) cell adhesion to BMEC, cell line not distinguished; format: cell-based; conditions: for Effect on CaP cell adhesion to BMEC: LNCaP compared to C4-2, FIG. 8, preliminary results
Procedure: FIG. 8 is a graphic representation of the effects of various peptides on altering cellular adhesion to BMEC cells in vitro. LNCaP cells were compared directly to C4-2 cells for the ability of specific phage-derived peptides to alter cellular adhesion to BMEC cells in vitro. Adhesion was measured at […]. C=control (no peptide). The ordinate represents percent of acid precipitable counts bound and the abscissa indicated the cells treated and the peptides used.
The phage-derived bone-targeting peptides isolated by biopanning were tested for their ability to alter the adhesion of prostate cancer cells to a human bone marrow endothelial cell line (see FIG. 8). In this assay, LNCaP cells were compared directly to the more metastatic, bone colonizing derivative, C4-2.
This observation will be examined further and exploited by the aims of this proposal to identify the binding partners of nucleolin in prostate cancer cells as well as to investigate bone tropic peptides as potential inhibitors of prostate cancer metastasis.

D1 cells = test: Peptide binding to D1 bone marrow mesenchymal cells; conditions: for Binding to D1 cells: FIG. 4; for Binding to cells from the skeleton in vitro: mesenchymal cells from bone marrow (D1), or human bone marrow endothelial cells, avidin-FITC probe
Source text: as §3
The peptides were ranked based on the frequency with which they occurred in the plaques from which DNA was prepared and sequenced. Four of the sequences (L13, L19, R1, and R3) were synthesized as biotinylated peptide or as the control non biotinylated version of the sequence. […] The cells used in these experiments were mesenchymal cells from bone marrow (D1), or human bone marrow endothelial cells. An avidin-FITC probe detected the biotinylated peptide in areas of the cells in culture representing either extrusions from the cells or at the end of cell processes; structures reminiscent of adhesion plaques or footprints.

[5] = system: human bone marrow endothelial cells (HBME); test: Peptide binding to HBME cells in culture (Avidin-FITC); set-up: key: ✓: Check marks indicate positive binding observed with FITC; −: a dash indicates a negative result
Procedure: as §2, §3

[6] = system: bone marrow derived mesenchymal stem cells; test: Microarray gene expression analysis of peptide-treated mesenchymal stem cells; format: cell-based; conditions: 100 μM/ml peptide, day 7, microarray
Procedure: For gene analysis, the bone marrow derived mesenchymal stem cells were seeded at 95,000 cells per well in a 6 well plate and maintained in culture media containing 100 μM/ml of each of the 13 peptides. The media were changed every three days. The cells were harvested at day 7, total RNA isolated using the Qiagen RNeasy kit and quantified with a spectrophotometer. After initial screening of the genes with real-time PCR, four peptides were chosen for microarray analysis: L13, L19, R1, and R3 (SEQ ID NOs: 8, 10, 11, and 13, respectively).

Row | Substance | Identification of binding partners by affinity chromatography: HBME [1] | Identification of binding partners by affinity chromatography: BAEC [2] | Localization of peptide binding: Marrow (cells in culture) [3] | Binding to adherent cells from bone marrow blowouts [3] | Effect on CaP cell adhesion to BMEC [4] | Binding to D1 cells (D1 cells) | Binding to cells from the skeleton in vitro (D1 cells) | further results
1 | ASN-SER-MET-ILE-ALA-HIS-ASN-LYS-THR-ARG-MET-HIS-GLY-GLY-GLY-SER (NSMIAHNKTRMHGGGS; listed as Homo sapiens) [Peptide L7] | − | − |  |  |  |  |  | 
2 | ASN-TYR-SER-HIS-LEU-ARG-VAL-LYS-LEU-PRO-THR-PRO-GLY-GLY-GLY-SER (NYSHLRVKLPTPGGGS; listed as Homo sapiens) [Peptide R1] |  |  | ✓ | showed detectable binding | did not show remarkable activity | bind to D1 cells | found to bind cells from the skeleton | 
3 | SER-GLY-HIS-GLN-LEU-LEU-LEU-ASN-LYS-MET-PRO-ASN-GLY-GLY-GLY-SER (SGHQLLLNKMPNGGGS; listed as Homo sapiens) [Peptide L13] | ✓Nucleolin | − | ✓ | showed detectable binding | consistent suppression of CaP cell invasion that was saturated at the doses tested; also recorded: inhibits CaP cell adhesion to bone marrow endothelial cells | bind to D1 cells | found to bind cells from the skeleton | Concentrations at which peptide inhibits prostate cancer cell adhesion to BMEC ([4]; 50 μM and 100 μM tested): at both 50 μM and 100 μm; Localization of peptide binding: HBME [5]: ✓; Binding partner from HBME / bone marrow endothelial cells ([1]; biotinylated peptide immobilized on avidin-agarose): nucleolin was the major component that binds; Fold Change: Ameloblastin [6]: +3.73 fold; Fold Change: Cartilage link protein 1 [6]: +2.00 fold; Fold Change: Eph receptor A5 [6]: +4.92 fold; Fold Change: Fibronectin 1 [6]: −2.64 fold; Fold Change: Hypothetical protein MGC28705 [6]: +4.59 fold; Fold Change: Neural cell adhesion molecule 2 [6]: +6.96 fold; Fold Change: Procollagen, type I, alpha 1 [6]: +3.03 fold; Fold Change: RIKEN cDNA 2410129E14 gene [6]: +3.03 fold; Fold Change: Syndecan 4 [6]: +3.03 fold; Fold Change: Thyroid hormone receptor alpha [6]: −1.23 fold; Fold Change: v-raf-1 leukemia viral oncogene 1 [6]: +2.46 fold
